Experimental findings from US5817840A, “Water soluble taxol derivatives” (The Scripps Research Institute, priority 1997, dated 1998) are described below.

As usually defined, the IC50 is the concentration that inhibits the measured activity by half. A lower IC50 goes with greater potency.

Common to all, as to assay type: cell-based
The test system of one assay is NHDF (normal human skin). Briefly: Cytotoxicity (sulphorhodamine B), normal cell line, Table 1B. The note with it: 72 h.
Assay [1] concerns NHDF (normal human dermal fibroblast). Briefly: Cytotoxicity, Example 8. The note with it: 72 h. The procedure:
(§1) Tumor or normal cells were cultured in 96-well plates with the test compound in 200 μl of RPMI supplemented with 10% fetal bovine serum (Hyclone, Salt Lake City, Utah) at 37° C. in a humidified atmosphere containing 5% CO2 in air for 72 hours. Sulforhodamine B dissolved in 1% acetic acid was added, and the plates were incubated for 30 minutes at ambient temperature, washed with 1% acetic acid, and blotted. To the air-dried plates were added 100 μl of […] unbuffered TRIS base (pH 10.5) with shaking. The optical densities of the plates were measured with a microplate reader (Molecular Devices Thermomax) at 540 nm. The concentration of compound required to reduce the absorbance to 50% of control samples was recorded as IC50.
(§2) NHDF: Normal human dermal fibroblast (available from Clouelics Corp., San Diego, Calif.); HLF-1: Normal human diploid lung; W1-38; Normal human diploid lung; CHO; Chinese hamster ovary; SK-MEL-28: Melanoma; CAPAN-1: Pancreatic carcinoma; H322: lung carcinoma; MCF-7; Breast carcinoma; BT-549; Human breast ductal carcinoma; OVCAR-3: Human ovarian carcinoma; HT-29: Human adenocarcinoma, colon; SIHA: Human squamous carcinoma crvx; 786-0: Human perirenal cell adenocarci; PC-3: Human prostate adenocarcinoma; HL-60: Human promyelomic leukemia; MOLT-4: Human T-cell leukemia. All cell lines except NHDF are available from the American Tissue Culture Collection, Rockville, Md.

The subject of another assay is SK-MEL-28 (melanoma). The assay is described as follows: Cytotoxicity, Example 8. The following applies: Homo sapiens, SK-MEL-28, 72 h. The procedure:
as §1, §2

The subject of assay [2] is OVCAR-3 (human ovarian carcinoma). The assay is described as follows: Cytotoxicity, Example 8. The note with it: OVCAR-3, 72 h. The method, then: as §1, §2
The subject of assay [3] is W1-38 (normal human diploid lung). The assay is described as follows: Cytotoxicity, Example 8. The following applies: W138, 72 h. The method, then: as §1, §2
For assay [4], the system named is CAPAN-1 (pancreatic carcinoma). The assay is described as follows: Cytotoxicity, Example 8. The following applies: Homo sapiens, CAPAN-1, 72 h. The method, then: as §1, §2
For a further assay, the system named is MCF-7 (breast carcinoma). The assay is described as follows: Cytotoxicity, Example 8. The following applies: Homo sapiens, MCF7, 72 h. The method, then: as §1, §2
The test system of assay [5] is S1HA (human squamous carcinoma crvx). Briefly: Cytotoxicity, Example 8. The note with it: 72 h. The method, then:
as §1, §2

For assay [6], the system named is 786-0 (human perirenal cell adenocarci). The assay is described as follows: Cytotoxicity, Example 8. The following applies: 786-0, 72 h. The procedure:
as §1, §2

For assay [7], the system named is H322 (lung carcinoma). The assay is described as follows: Cytotoxicity, Example 8. The note with it: NCI-H322, 72 h. The method, then:
as §1, §2

Assay [8] concerns HT-29 (human adenocarcinoma, colon). The assay is described as follows: Cytotoxicity, Example 8. The following applies: HT-29, 72 h. The method, then: as §1, §2
In assay [9] the test system is CHO (Chinese hamster ovary). The assay is described as follows: Cytotoxicity, Example 8. The note with it: Cricetulus griseus, 72 h. The procedure:
as §1, §2

The test system of assay [10] is PC-3 (human prostate adenocarcinoma). The assay is described as follows: Cytotoxicity, Example 8. The note with it: 72 h. The procedure: as §1, §2
The subject of assay [11] is BT-549 (human breast ductal carcinoma). The assay is described as follows: Cytotoxicity, Example 8. The note with it: BT-549, 72 h. The method, then:
as §1, §2

The test system of assay [12] is HLF-1 (normal human diploid lung). Briefly: Cytotoxicity, Example 8. The following applies: HLF1, 72 h. The method, then: as §1, §2
The test system of assay [13] is CHO (Chinese hamster ovary). Briefly: Cytotoxicity (sulphorhodamine B), normal cell line, Table 1B. The note with it: Cricetulus griseus, 72 h.
Procedure: (§3) The cytotoxicities were determined using the sulphorhodamine B assay method (Skehan, P. et al. J. Nat. Canc. Inst. 82, 1107 (1990)).
For assay [14], the system named is 786-0 (renal cell carcinoma). The assay is described as follows: Cytotoxicity (sulphorhodamine B), cancer cell line, Table 1B. The following applies: Homo sapiens, 786-0, 72 h.
Procedure: as §3
Assay [15] relates to MOLT-4 (T-cell leukaemia). The assay is described as above. The following applies: Homo sapiens, MOLT-4, 72 h.
Procedure: as §3
Assay [16] deals with H322 (lung carcinoma). The description is as above. The following applies: NCI-H322, 72 h.
Procedure: as §3

Procedure for NHDF (normal human skin): as §3

In the case of `CC(=O)O[C@H]1C(=O)[C@@]2(C)[C@H]([C@H](OC(=O)c3ccccc3)[C@]3(O)C[C@H](OC(=O)[C@H](OC(=O)CS(=O)(=O)CC(=O)O)[C@@H](NC(=O)c4ccccc4)c4ccccc4)C(C)=C1C3(C)C)[C@]1(OC(C)=O)CO[C@@H]1C[C@@H]2O` [Compound 5], the IC50 in the assay with NHDF (normal human skin) was 1000 nM; in assay [1], 190 nM; in the assay with SK-MEL-28 (melanoma), 100000 nM; in assay [2] it was 98 nM; in [3] it was 13000 nM; in assay [4], 190 nM. The IC50 with MCF-7 (breast carcinoma) was determined as 61000 nM; in assay [5], 50000 nM; in assay [6], 130 nM; in the assay on H322 (lung carcinoma) [7], 5000 nM; in [8], 98 nM; in [9], 100000 nM. Besides, the half-maximal inhibitory concentration (IC50) in assay [10] came to 50000 nM; in assay [11], 98 nM; in [12], 13000 nM; in [13], 100000 nM; in [14], 1000 nM; in [15], 1 nM. In the assay with H322 (lung carcinoma) [16], this molecule had an IC50 of 1 nM.
